Format in all cases: physicochemical
Series [1] in a line: Effect of sodium chloride on the solubility of Compound A, B and C (aqueous saturated solutions). The note with it: for solubility: thermodynamic from solid; for Precipitation: aqueous saturated solution. How it is done:
Sodium chloride was added to thus obtained aqueous saturated solution of Compound A, B, and C respectively in an amount to give 0.4% NaCl solution and the mixture was stirred.
Similarly, the saturated aqueous solution of Compound A-C was added with sodium chloride in an amount to give 0.85% solution, and precipitation and solubility were observed.

Series [2] in a line: Effect of the additives on the stability of the aqueous solution comprising Compound C, stored at 40° C. in LDPE container.
Series [3] can be described thus: Effect of the additives on solubility of Compound C (aqueous saturated solution). On the procedure:
To the saturated solution of Compound C prepared in the same manner as test example 1, glycerin in an amount to give 2.5% solution was added and the mixture was stirred. Similarly, mannitol in an amount to give 3.5% solution, boric acid in an amount to give 2% solution, potassium chloride in an amount to give 0.2% solution, disodium hydrogenphosphate in an amount to give 1% and sodium citrate in an amount to give 1% solution were added to the aqueous saturated solution of Compound C respectively. Precipitation and solubility, i.e. the change of the concentration of Compound C in the solution or supernatant were observed.

Series [4] can be described thus: Effect of the additives on the stability of the aqueous solution comprising Compound D, stored at 40° C. in LDPE container. The note with it: Compound D 0.3%. How it is done: Compound D was added with glycerin and distilled water and stirred to give clear aqueous solution (Conc. of Compound D: 0.3%, conc. of glycerin: 2.5%, about pH 6). Thus obtained solution was stored at 40° C. in the LDPE container and concentration of Compound D in the solution was observed over time.

The mark [5] stands for this setting: aqueous saturated solution with 0.4% NaCl, saline or isotonic, conc. in solution or supernatant, NaCl 0.4%.
The mark [6] stands for this setting: aqueous saturated solution with 0.85% NaCl, saline or isotonic, conc. in solution or supernatant, NaCl 0.85%.
[7] abbreviates: distilled water (injection grade), aqueous saturated solution in distilled water, NaCl 0%, A about pH 7, B about pH 3 (HCl), C about pH 7 (HCl).
Where [8] appears, read: Boric acid 1.68% and borax 0.018%, 40° C., 1 month.
The mark [9] stands for this setting: Boric acid 1.68% and borax 0.018%, 40° C., 3 months.
[10] abbreviates: Boric acid 1.68% and borax 0.018%, 40° C., 6 months.

The values that follow come from patent US20070208068A1, “Aqueous Composition Comprising Thiazole Derivative” (R-TECH UENO, LTD. & Astellas Pharma Inc., priority 2004, published 2007).

Values after ≈ are worked out from the molar mass of the structure shown.

By solubility is commonly meant how much of the substance goes into solution per volume. Regarding `CC(=O)Nc1nc(CCc2ccc(NC(=N)N)cc2)cs1` [Compound A], the “% Solubulity” value was “=100%” in series [1] (NaCl 0% (reference)); 31% in series [1] (NaCl 0.4%, vs 0% NaCl); 20% in series [1] (NaCl 0.85%, vs 0% NaCl). Further, the solubility in series [1] (setting [5]) came out at 1110 µg/mL (≈ 3.66 mM); in series [1] (setting [6]) it was 690 µg/mL (≈ 2.27 mM); in series [1] (setting [7]), 3550 µg/mL (≈ 11.7 mM). Further, the Precipitation entry in series [1] (conc. of NaCl 0%) is recorded as “no”; in series [1] (conc. of NaCl 0.4%), “yes”; in series [1] (conc. of NaCl 0.85%), “yes”.
As for `CC(=O)Nc1nc(CCc2ccc(CON)cc2)cs1` [Compound B], the “% Solubulity” value in series [1] (NaCl 0% (reference)) is recorded as “=100%”; in series [1] (NaCl 0.4%, vs 0% NaCl), 100%; in series [1] (NaCl 0.85%, vs 0% NaCl), 100%. The solubility in series [1] (setting [5]) was 1170 µg/mL (≈ 4.02 mM); in series [1] (setting [6]), 1190 µg/mL (≈ 4.08 mM); in series [1] (setting [7]), 1120 µg/mL (≈ 3.84 mM). Further, the Precipitation result in series [1] (conc. of NaCl 0%), in series [1] (conc. of NaCl 0.4%) and in series [1] (conc. of NaCl 0.85%) was “no” each time.
Turning to `CC(=O)Nc1nc(CCc2ccc(NC(=N)N)cc2)c(Cc2ccc(S(C)(=O)=O)cc2)s1` [Compound C], the “% Solubulity” value in series [1] (NaCl 0% (reference)) was “=100%”; in series [1] (NaCl 0.4%, vs 0% NaCl), 16%; in series [1] (NaCl 0.85%, vs 0% NaCl), 8%. Besides, the solubility in series [1] (setting [5]) worked out at 1760 µg/mL (≈ 3.73 mM); in series [1] (setting [6]), 860 µg/mL (≈ 1.82 mM); in series [1] (setting [7]), 10700 µg/mL (≈ 22.8 mM). The Precipitation entry in series [1] (conc. of NaCl 0%) was “no”; in series [1] (conc. of NaCl 0.4%), “yes”; in series [1] (conc. of NaCl 0.85%), “yes”; in series [3] (Boric acid 2%), “no”; in series [3] (Glycerin 2.5%), “no”; in series [3] (Mannitol 3.5%), “no”. The Precipitation result in series [3] (Potassium Chloride 0.2%), in series [3] (disodium hydrogenphosphate 1%) and in series [3] (sodium citrate 1%) was “yes” throughout. In addition, the “Change in Concentration of Compound C (vs the initial conc.)” value in series [2] (setting [8]) is on record as 104.9%; in series [2] (setting [9]), 106.2%; in series [2] (setting [10]) it was 108.2%; in series [2] (Boric acid 1.68% and borax 0.018%, 40° C., Initial), “=100%”; in series [2] (Glycerin 2.5%, Compound C 0.3%, about pH 6, 40° C., 1 month) it was 105.4%; in series [2] (Glycerin 2.5%, Compound C 0.3%, about pH 6, 40° C., 3 months) it was 110.6%. Besides, the “Change in Concentration of Compound C (vs the initial conc.)” value in series [2] (Glycerin 2.5%, Compound C 0.3%, about pH 6, 40° C., 6 months) is 112.3%; in series [2] (Glycerin 2.5%, Compound C 0.3%, about pH 6, 40° C., Initial), “=100%”; in series [2] (Mannitol 4.7%, 40° C., 1 month), 103.7%; in series [2] (Mannitol 4.7%, 40° C., 3 months), 108.4%; in series [2] (Mannitol 4.7%, 40° C., 6 months), 109.6%; in series [2] (Mannitol 4.7%, 40° C., Initial), “=100%”. The B/A ratio in series [3] (Boric acid 2%) is listed as 100%; in series [3] (Glycerin 2.5%) it was 95%; in series [3] (Mannitol 3.5%) it was 96%; in series [3] (Potassium Chloride 0.2%) it was 29%; in series [3] (disodium hydrogenphosphate 1%), 24%; in series [3] (sodium citrate 1%), 4%. Besides, the “Conc. of C/w additive (B)” value in series [3] (Boric acid 2%) stood at 11590 µg/mL; in series [3] (Glycerin 2.5%), 10910 µg/mL; in series [3] (Mannitol 3.5%), 11050 µg/mL; in series [3] (Potassium Chloride 0.2%), 3160 µg/mL; in series [3] (disodium hydrogenphosphate 1%), 2540 µg/mL; in series [3] (sodium citrate 1%), 480 µg/mL. Besides, the solubility thermodynamic in series [3] (aqueous saturated solution, pH 7, water, thermodynamic from solid, saturated solution before adding Mannitol 3.5%, read-out: Conc. of C w/o additive (A)) came out at 11500 µg/mL (≈ 24.4 mM). In addition, the “Conc. of C w/o additive (A)” value is 11510 µg/mL in series [3] (saturated solution before adding Boric acid 2%); 11510 µg/mL in series [3] (saturated solution before adding Glycerin 2.5%); 10730 µg/mL in series [3] (saturated solution before adding Potassium Chloride 0.2%); 10730 µg/mL in series [3] (saturated solution before adding disodium hydrogenphosphate 1%); 10730 µg/mL in series [3] (saturated solution before adding sodium citrate 1%).
In the case of `CC(=O)Nc1nc(CCc2ccc(NC(=N)N)cc2)c(Cc2ccc(S(C)(=O)=O)cc2)s1.Cl` [Compound D], the “Change in Concentration of Compound D (vs the initial conc.)” value in series [4] (setting [8]) is 99.7%; in series [4] (setting [9]) it was 105.8%; in series [4] (setting [10]) it was 102.6%; in series [4] (Boric acid 1.68% and borax 0.018%, 40° C., initial) it was “=100%”; in series [4] (Glycerin 2.5%, about pH 6, 40° C., 1 month), 100.8%; in series [4] (Glycerin 2.5%, about pH 6, 40° C., 3 months) it was 107.7%. The “Change in Concentration of Compound D (vs the initial conc.)” value in series [4] (Glycerin 2.5%, about pH 6, 40° C., 6 months) was 104.4%; in series [4] (Glycerin 2.5%, about pH 6, 40° C., initial), “=100%”.
